For one series, the system named is male C3H/HeN mice. The series can be described thus: Ability of test compounds to suppress graft host vs rejection in mice (popliteal lymph node weight). In kind it is in vivo. The conditions noted are these: right popliteal lymph node weight 4 days after injection of BALB/c stimulation cells. From the text:
Ability of Test Compounds to Suppress Graft Host vs Rejection in Mice […] Spleens were collected from 9 to 11 week old male BALB/c mice (CLEA JAPAN Inc., CHARLES RIVER JAPAN Inc., or JAPAN SLC Inc.). The spleens were placed in a phosphate-buffered saline (PBS(-), NISSUI PHARMACEUTICAL Co., Ltd.) or in an RPMI-1640 medium (GIBCO […] Inc., or IWAKI GLASS Co., Ltd.) and were either passed through a stainless steel mesh, or gently pressed between two slide glasses and then passed through a cell strainer (70 μm, Falcon), to form a cell suspension. The suspension was then centrifuged and the supernatant was discarded. An ammonium chloride-Tris isotonic buffer was added to the suspension to lyse erythrocytes. The cells were then centrifuged and washed three times in PBS (-) or RPMI-1640 medium and were resuspended in an RPMI-1640 medium. […] The cells were again centrifuged and washed in PBS (-) or RPMI-1640 medium and were resuspended in an RPMI-1640 medium so that the medium would contain 2.5×10^8 cells/mL. This suspension served as a “stimulation cell suspension.” Using a 27G needle along with a microsyringe (Hamilton), 20 μL (5×10^6 cells/mouse) of the stimulation cell suspension was subcutaneously injected into the right hind footpad of 7 to 9 week old male C3H/HeN mice (CLEA JAPAN Inc., CHARLES RIVER JAPAN Inc., or JAPAN SLC Inc.). […]

The next series deals with male BALB/c mice. In words: Ability of test compounds to suppress delayed-type hypersensitivity in mice (DNFB, ear thickness). Type of series: in vivo. The conditions noted are these: dose 1 mg/kg orally 30 minutes before DNFB challenge; ear thickness increase 24 hours after the challenge. As for the experimental part:
<Experiment 2> Ability of Test Compounds to Suppress Delayed-Type Hypersensitivity in Mice. […] The sensitization was done for 2 consecutive days (day 0 and day 1). On day 5, the mice were challenged with the antigen to induce delayed-type hypersensitive responses: First, the initial thickness of each ear was measured by the dial thickness gauge G (0.01-10 mm, OZAKI MFG Co., Ltd.) and a test compound was administered. 30 minutes after the administration, 10 μL of a 0.2% (v/v) DNFB solution was applied to the inner and outer surfaces of the right ear of each animal for antigen challenge. The left ear of each animal was challenged with the solvent alone. 24 hours after the challenge, the increase in the ear thickness was measured for each ear and the difference in thickness between the right and the left ears was determined for each individual. The test compound was dissolved, or suspended, in an ultra pure water and was orally administered at a dose of 0.1 mL/10 g of body weight. A control group was administered ultra pure water alone.

In the case of `Cl.NC(CO)(CO)CCc1ccc(Sc2cccc(OCc3ccccc3)c2)cc1Cl` [Example 46, 2-amino-2-[4-(3-benzyloxyphenylthio)-2-chlorophenyl]ethyl-1,3-propanediol Hydrochloride], the “Inhibition (%)” value in the series with male C3H/HeN mice (dose 0.3 mg/kg intraperitoneally once a day for four consecutive days) came to 80%.
As a reminder, the melting point is the temperature of the solid-liquid transition. For `Cl.NC(CO)(CO)CCCc1ccc(Sc2cccc(OCc3ccccc3)c2)cc1Cl` [Example 36, 2-amino-2-[4-(3-benzyloxyphenylthio)-2-chlorophenyl]propyl-1,3-propanediol hydrochloride], the melting point fell in the range of 132 to 133 °C. Further, the “Inhibition (%)” value in the series on male C3H/HeN mice (dose 0.03 mg/kg intraperitoneally once a day for four consecutive days) worked out at 85%. Also, the “Inhibition (%)” value with male BALB/c mice was found to be 86%.

For the origin of these results see patent US6960692B2, “Diaryl sulfide derivative, addition salt thereof, and immunosuppressant” (Kyorin Pharmaceutical Co., Ltd., priority 2001, dated 2005).
